In BindingDB's records for doi:10.1021/jm010801s (2002):
pIC50: −log10 of the molar value.

Target: Cathepsin K (Oryctolagus cuniculus) (UniProt P43236)
Experiment: Inhibition of recombinant rabbit Cathepsin K in a fluorescence assay

Sequence of Cathepsin K (Oryctolagus cuniculus) (P43236 whole entry, looked up): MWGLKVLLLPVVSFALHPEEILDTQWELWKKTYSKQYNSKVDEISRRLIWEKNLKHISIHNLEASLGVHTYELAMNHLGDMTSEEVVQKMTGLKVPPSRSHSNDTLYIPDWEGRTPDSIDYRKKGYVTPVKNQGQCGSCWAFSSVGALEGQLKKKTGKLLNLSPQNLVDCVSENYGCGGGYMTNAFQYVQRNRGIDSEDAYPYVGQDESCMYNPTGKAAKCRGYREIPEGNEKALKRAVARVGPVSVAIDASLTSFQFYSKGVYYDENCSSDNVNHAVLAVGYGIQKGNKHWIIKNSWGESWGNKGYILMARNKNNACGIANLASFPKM

SMILES | pIC50
COc1cccc(NCCNC(=O)[C@H](CC(C)C)NC(=O)OCc2ccccc2)c1 [{1-[2-(3-Methoxy-phenylamino)-ethylcarbamoyl]-3-methyl-butyl}-carbamic acid benzyl ester] | < 6.00
CC(C)C[C@H](NC(=O)OCc1ccccc1)C(=O)NCCNc1ccccc1 [[3-Methyl-1-(2-phenylamino-ethylcarbamoyl)-butyl]-carbamic acid benzyl ester] | 6.33
CC(C)C[C@H](NC(=O)OCc1ccccc1)C(=O)NCCNc1cccc(Cl)c1 [{1-[2-(3-Chloro-phenylamino)-ethylcarbamoyl]-3-methyl-butyl}-carbamic acid benzyl ester] | < 6.00

Further compounds by rising pIC50, results first:

pIC50 | SMILES
6.34 | Cc1cccc(NCCNC(=O)[C@H](CC(C)C)NC(=O)OCc2ccccc2)c1 [[3-Methyl-1-(2-m-tolylamino-ethylcarbamoyl)-butyl]-carbamic acid benzyl ester]
6.46 | CC(C)C[C@H](NC(=O)OCc1ccccc1)C(=O)NCCNc1ccc(Cl)cc1 [{1-[2-(4-Chloro-phenylamino)-ethylcarbamoyl]-3-methyl-butyl}-carbamic acid benzyl ester]
6.72 | Cc1ccc(NCCNC(=O)[C@H](CC(C)C)NC(=O)OCc2ccccc2)cc1 [[3-Methyl-1-(2-p-tolylamino-ethylcarbamoyl)-butyl]-carbamic acid benzyl ester]
